# From patent US7504426B2, “Heterocyclic compounds” (Janssen Pharmaceutica N.V., priority 2003, dated 2009)
# How the values were obtained:
# [1] = molecular target: T1, human histamine H4 receptor (Homo sapiens, UniProt Q9H3N8); assay: biochemical
# [2] = molecular target: T1, human histamine H4 receptor; assay: Binding assay on recombinant human histamine H4 receptor (3H-histamine displacement); conditions: read-out: Binding Assay Ki; repeated in the chemotaxis table
# human eosinophils = assay: Inhibition of histamine-induced eosinophil shape change (GAFS); format: cell-based; conditions: for effect on histamine-induced shape change: human eosinophils
# Experimental: Eosinophil accumulation in sites of allergic reaction is a well-known characteristic of allergic rhinitis and asthma. […] Shape change is a cellular characteristic that precedes eosinophil chemotaxis.
# Human granulocytes were isolated from human blood by a Ficoll gradient. The red blood cells were lysed with 5-10X Qiagen lysis buffer at room temperature for 5-7 min. Granulocytes were harvested and washed once with FACS buffer. The cells were resuspended at a density of 2×10^6 cells/mL in reaction buffer. […] Ten minutes later the cells were transferred to ice and fixed with 250 μL of ice-cold fixative buffer (2% formaldehyde) for 1 min.
# The change in shape of eosinophils is due to cytoskeletal changes that precede chemotaxis and thus is a measure of chemotaxis.
# [3] = histamine 0 μM, HR antagonist 10 μM
# [4] = histamine 0.01 μM, HR antagonist 10 μM or none
# [5] = histamine 0.1 μM, HR antagonist 10 μM or none
# [6] = histamine 1 μM, HR antagonist 10 μM or none
# [7] = histamine 10 μM, HR antagonist 10 μM or none
# T1 sequence (Q9H3N8 whole entry): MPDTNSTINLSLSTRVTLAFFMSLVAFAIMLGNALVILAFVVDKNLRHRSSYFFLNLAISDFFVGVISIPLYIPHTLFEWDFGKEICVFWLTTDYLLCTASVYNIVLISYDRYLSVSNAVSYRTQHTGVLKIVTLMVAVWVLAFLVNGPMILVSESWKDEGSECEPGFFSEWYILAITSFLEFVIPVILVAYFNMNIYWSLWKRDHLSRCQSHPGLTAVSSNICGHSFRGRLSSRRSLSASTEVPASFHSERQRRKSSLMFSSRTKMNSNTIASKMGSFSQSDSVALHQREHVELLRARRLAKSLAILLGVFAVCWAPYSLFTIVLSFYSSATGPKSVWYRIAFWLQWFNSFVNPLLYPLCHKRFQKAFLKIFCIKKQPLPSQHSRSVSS
SMILES,Ki [1] [µM],other results
"CN1CCN(C(=O)c2nc3ccccc3[nH]2)CC1 [Example 1, (1H-Benzoimidazol-2-yl)-(4-methyl-piperazin-1-yl)-methanone]",0.032,
"CCN1CCN(C(=O)c2nc3ccccc3[nH]2)CC1 [Example 2, (1H-Benzoimidazol-2-yl)-(4-ethyl-piperazin-1-yl)-methanone]",0.49,
"CC1CN(C(=O)c2nc3ccccc3[nH]2)CCN1 (stereo not shown) [Example 3, (1H-Benzoimidazol-2-yl)-(3-methyl-piperazin-1-yl)-methanone]",0.331,
"CN1CCCN(C(=O)c2nc3ccccc3[nH]2)CC1 [Example 4, (1H-Benzoimidazol-2-yl)-(4-methyl-[1,4]diazepan-1-yl)-methanone]",1.4,
"CN1C2CCC1CC(NC(=O)c1nc3ccccc3[nH]1)C2 (stereo not shown) [Example 5, 1H-Benzoimidazole-2-carboxylic acid (8-methyl-8-aza-bicyclo[3.2.1]oct-3-yl)-amide]",0.089,
"CN1CCN(C(=O)c2nc3cc(Cl)ccc3[nH]2)CC1 [Example 6, (5-Chloro-1H-benzoimidazol-2-yl)-(4-methyl-piperazin-1-yl)-methanone]",0.025,Ki [2]: 0.025 µM
"CC1CN(C(=O)c2nc3cc(Cl)ccc3[nH]2)CCN1 (stereo not shown) [Example 8, (5-Chloro-1H-benzoimidazol-2-yl)-(3-methyl-piperazin-1-yl)-methanone]",0.3,
"CCN1CCN(C(=O)c2nc3cc(F)c(F)cc3[nH]2)CC1 [Example 10, (5,6-Difluoro-1H-benzoimidazol-2-yl)-(4-ethyl-piperazin-1-yl)-methanone]",0.62,
"CC1CN(C(=O)c2nc3cc(F)c(F)cc3[nH]2)CCN1 (stereo not shown) [Example 11, (5,6-Difluoro-1H-benzoimidazol-2-yl)-(3-methyl-piperazin-1-yl)-methanone]",0.355,
"CN1CCCN(C(=O)c2nc3cc(F)c(F)cc3[nH]2)CC1 [Example 12, (5,6-Difluoro-1H-benzoimidazol-2-yl)-(4-methyl-[1,4]diazepan-1-yl)-methanone]",0.807,
"CN1C2CCC1CC(NC(=O)c1nc3cc(F)c(F)cc3[nH]1)C2 (stereo not shown) [Example 13, 5,6-Difluoro-1H-benzoimidazole-2-carboxylic acid (8-methyl-8-aza-bicyclo[3.2.1]oct-3-yl)-amide]",0.38,
"CN1CCN(C(=O)c2nc3cc(F)c(Cl)cc3[nH]2)CC1 [Example 14, (6-Chloro-5-fluoro-1H-benzoimidazol-2-yl)-(4-methyl-piperazin-1-yl)-methanone]",0.053,
"O=C(c1nc2cc(F)c(Cl)cc2[nH]1)N1CCNCC1 [Example 15, (6-Chloro-5-fluoro-1H-benzoimidazol-2-yl)-piperazin-1-yl-methanone]",0.216,
"CN1CCCN(C(=O)c2nc3cc(F)c(Cl)cc3[nH]2)CC1 [Example 16, (6-Chloro-5-fluoro-1H-benzoimidazol-2-yl)-(4-methyl-[1,4]diazepan-1-yl)-methanone]",1.3,
"CN1C2CCC1CC(NC(=O)c1nc3cc(F)c(Cl)cc3[nH]1)C2 (stereo not shown) [Example 17, 6-Chloro-5-fluoro-1H-benzoimidazole-2-carboxylic acid (8-methyl-8-aza-bicyclo[3.2.1]oct-3-yl)-amide]",0.535,
"Cc1cc2nc(C(=O)N3CCN(C)CC3)[nH]c2cc1Cl [Example 18, (5-Chloro-6-methyl-1H-benzoimidazol-2-yl)-(4-methyl-piperazin-1-yl)-methanone]",0.226,
"Cc1cc2nc(C(=O)N3CCNCC3)[nH]c2cc1Cl [Example 19, (5-Chloro-6-methyl-1H-benzoimidazol-2-yl)-piperazin-1-yl-methanone]",1,
"Cc1cccc2[nH]c(C(=O)N3CCNC(C)C3)nc12 (stereo not shown) [Example 20, (4-Methyl-1H-benzoimidazol-2-yl)-(3-methyl-piperazin-1-yl)-methanone]",0.156,
"CCN1CCN(C(=O)c2nc3c(C)cccc3[nH]2)CC1 [Example 21, (4-Ethyl-piperazin-1-yl)-(4-methyl-1H-benzoimidazol-2-yl)-methanone]",0.468,
"Cc1cccc2[nH]c(C(=O)N3CCN(C)CC3)nc12 [Example 22, (4-Methyl-1H-benzoimidazol-2-yl)-(4-methyl-piperazin-1-yl)-methanone]",0.031,
"Cc1cccc2[nH]c(C(=O)N3CCNCC3)nc12 [Example 23, (4-Methyl-1H-benzoimidazol-2-yl)-piperazin-1-yl-methanone]",0.135,
"Cc1cccc2[nH]c(C(=O)N[C@H]3C[C@H]4CC[C@@H](C3)N4C)nc12 [Example 24, 4-Methyl-1H-benzoimidazole-2-carboxylic acid (8-methyl-8-aza-bicyclo[3.2.1]oct-3-yl)-amide]",0.27,

SMILES,Ki [1] [µM],other results
"Cc1ccc2[nH]c(C(=O)N3CCN(C)CC3)nc2c1 [Example 26, (5-Methyl-1H-benzoimidazol-2-yl)-(4-methyl-piperazin-1-yl)-methanone]",0.528,
"CN1CCN(C(=O)c2nc3cc(C(F)(F)F)ccc3[nH]2)CC1 [Example 27, (4-Methyl-piperazin-1-yl)-(5-trifluoromethyl-1H-benzoimidazol-2-yl)-methanone]",0.011,
"O=C(c1nc2cc(C(F)(F)F)ccc2[nH]1)N1CCNCC1 [Example 28, Piperazin-1-yl-(5-trifluoromethyl-1H-benzoimidazol-2-yl)-methanone]",0.42,
"CN1CCN(C(=O)c2nc3cc(F)ccc3[nH]2)CC1 [Example 29, (5-Fluoro-1H-benzoimidazol-2-yl)-(4-methyl-piperazin-1-yl)-methanone]",0.026,
"CCN1CCN(C(=O)c2nc3cc(F)ccc3[nH]2)CC1 [Example 30, (4-Ethyl-piperazin-1-yl)-(5-fluoro-1H-benzoimidazol-2-yl)-methanone]",0.37,
"O=C(c1nc2cc(F)ccc2[nH]1)N1CCNCC1 [Example 31, (5-Fluoro-1H-benzoimidazol-2-yl)-piperazin-1-yl-methanone]",0.042,
"CC1CN(C(=O)c2nc3cc(F)ccc3[nH]2)CCN1 (stereo not shown) [Example 32, (5-Fluoro-1H-benzoimidazol-2-yl)-(3-methyl-piperazin-1-yl)-methanone]",0.46,
"CN1CCN(C(=O)c2nc3cccnc3[nH]2)CC1 [Example 34, (3H-Imidazo[4,5-b]pyridin-2-yl)-(4-methyl-piperazin-1-yl)-methanone]",0.833,
"CN1CCN(C(=O)c2nc3ccccc3o2)CC1 [Example 35, Benzooxazol-2-yl-(4-methyl-piperazin-1-yl)-methanone]",0.62,
"Cc1cccc2nc(C(=O)N3CCN(C)CC3)oc12 [Example 36, (7-Methyl-benzooxazol-2-yl)-(4-methyl-piperazin-1-yl)-methanone]",1.2,
"Cc1ccc2oc(C(=O)N3CCN(C)CC3)nc2c1 [Example 37, (5-Methyl-benzooxazol-2-yl)-(4-methyl-piperazin-1-yl)-methanone]",1.3,
"Cc1cccc2oc(C(=O)N3CCN(C)CC3)nc12 [Example 38, (4-Methyl-benzooxazol-2-yl)-(4-methyl-piperazin-1-yl)-methanone]",1.6,
"CN1CCN(C(=O)c2nc3ccccc3s2)CC1 [Example 39, Benzothiazol-2-yl-(4-methyl-piperazin-1-yl)-methanone]",0.81,
"CN1CCN(C(=O)c2nc3cc(C(=O)c4ccccc4)ccc3[nH]2)CC1 [Example 40, (5-Benzoyl-1H-benzoimidazol-2-yl)-(4-methyl-piperazin-1-yl)-methanone]",8,
"CN1CCN(C(=O)c2nc3c(Cl)cccc3[nH]2)CC1 [Example 41, (4-Chloro-1H-benzoimidazol-2-yl)-(4-methyl-piperazin-1-yl)-methanone]",0.057,
"CN1CCN(C(=N)c2nc3cc(Cl)ccc3[nH]2)CC1 [Example 45, C-(5-Chloro-1H-benzoimidazol-2-yl)-C-(4-methyl-piperazin-1-yl)-methyleneamine]",0.11,
"CN1CCN(C(=O)c2nc3c(F)cc(F)cc3[nH]2)CC1 [Example 46, (4,6-Difluoro-1H-benzoimidazol-2-yl)-(4-methyl-piperazin-1-yl)-methanone]",0.064,
"CN1CCN(C(=O)c2nc3cc([N+](=O)[O-])ccc3[nH]2)CC1 [Example 47, (4-Methyl-piperazin-1-yl)-(5-nitro-1H-benzoimidazol-2-yl)-methanone]",0.158,
"Cc1c(F)ccc2[nH]c(C(=O)N3CCN(C)CC3)nc12 [Example 48, (5-Fluoro-4-methyl-1H-benzoimidazol-2-yl)-(4-methyl-piperazin-1-yl)-methanone]",0.023,
"CN1CCN(C(=O)c2nc3cc(Br)ccc3[nH]2)CC1 [Example 49, (5-Bromo-1H-benzoimidazol-2-yl)-(4-methyl-piperazin-1-yl)-methanone]",0.051,
CN(C)CCOC(c1ccccc1)c1ccccc1 [diphenhydramine],,Fold Change (eosinophil shape change) (human eosinophils; [3]): 1.00; Fold Change (eosinophil shape change) (human eosinophils; [4]): 1.03; Fold Change (eosinophil shape change) (human eosinophils; [5]): 1.18; Fold Change (eosinophil shape change) (human eosinophils; [6]): 1.50; Fold Change (eosinophil shape change) (human eosinophils; [7]): 1.63; effect on histamine-induced shape change (human eosinophils): did not alter the histamine-induced shape change
CNC(=C[N+](=O)[O-])NCCSCc1ccc(CN(C)C)o1 [ranatidine],,Fold Change (eosinophil shape change) (human eosinophils; [3]): 1.00; Fold Change (eosinophil shape change) (human eosinophils; [4]): 1.04; Fold Change (eosinophil shape change) (human eosinophils; [5]): 1.21; Fold Change (eosinophil shape change) (human eosinophils; [6]): 1.49; Fold Change (eosinophil shape change) (human eosinophils; [7]): 1.64; effect on histamine-induced shape change (human eosinophils): did not alter the histamine-induced shape change
